Columns and labels:
92UG037 (A-R5) = experiment: p24 Gag production inhibition, PHA-PBMs, subtype A isolate 92UG037; assay type: cell-based, HIV-1; conditions: Human immunodeficiency virus 1, read-out: IC50 against 92UG037 (A-R5)
Experimental: (§1) Drug susceptibility assay. The susceptibility of HIV-1LAI, HIV-2EHO, HIV-2ROD, to various drugs and the cytotoxicity of those drugs was determined by using the MTT assay. Briefly, MT-2 cells (2×10^4/mL) were exposed to 100 TCID50s (50% tissue culture infectious doses) of HIV-1LAI, HIV-2EHO, or HIV-2ROD in the presence or absence of various concentrations of drugs in 96-well microculture plates and were incubated at 37° C. for 7 days. After 100 μL of the medium was removed from each well, 3-(4,5-dimethylthiazol-2-yl)-2,5-diphenyltetrazolium bromide (MTT) solution (10 μL, 7.5 mg/mL in phosphate-buffered saline) was added to each well in the plate, followed by incubation at 37° C. for 4 hours. […] All assays were performed in duplicate or triplicate. To determine the sensitivity of HIV-1Ba-L, HIV-1ERS104 pre, and clinical multi-drug-resistant HIV-1 isolates and different subtypes of HIV-1 isolates to drugs, phytohemagglutinin-activated peripheral blood mononuclear cells (PHA-PBMs; 10^6/mL) were exposed to 50 TCID50 (50% tissue infectious dose) of each HIV-1 isolate and cultured in the presence or absence of various concentrations of drugs in 10-fold serial dilutions in 96-well microtiter culture plates. To determine the drug susceptibility of certain laboratory HIV-1 strains (HIV-1NL4-3), MT-4 cells were used as target cells. MT-4 cells (10^5/mL) were exposed to 100 TCID50 of wild type HIV-1NL4-3 and PI-resistant HIV-1NL4-3 in the presence or absence of various concentrations of drugs and were incubated at 37° C. On day 7 of culture, the supernatant was harvested and the amount of p24 Gag protein was determined by using a fully automated chemiluminescent enzyme immunoassay system (Lumipulse F; Fujirebio Inc., Tokyo, Japan) (22). […] All assays were performed in duplicate or triplicate.
The IC50 values were determined by using PHA-PBMs as target cells and the inhibition of p24 Gag protein production by each drug was used as an endpoint.

HIV-1GRL98065r-40P = experiment: microbe, parasite or virus in culture; assay type: cell-based; conditions: for IC50: Human immunodeficiency virus 1, MT4, read-out: IC50 against HIV-1GRL98065r-40P; for fold change of IC50, HIV-1GRL98065r-40P: compared to HIV-1NL4-3
Experimental: Drug susceptibility assay. The susceptibility of HIV-1LAI, HIV-2EHO, HIV-2ROD, to various drugs and the cytotoxicity of those drugs was determined by using the MTT assay. Briefly, MT-2 cells (2×10^4/mL) were exposed to 100 TCID50s (50% tissue culture infectious doses) of HIV-1LAI, HIV-2EHO, or HIV-2ROD in the presence or absence of various concentrations of drugs in 96-well microculture plates and were incubated at 37° C. for 7 days. After 100 μL of the medium was removed from each well, 3-(4,5-dimethylthiazol-2-yl)-2,5-diphenyltetrazolium bromide (MTT) solution (10 μL, 7.5 mg/mL in phosphate-buffered saline) was added to each well in the plate, followed by incubation at 37° C. for 4 hours. […] All assays were performed in duplicate or triplicate. To determine the sensitivity of HIV-1Ba-L, HIV-1ERS104 pre, and clinical multi-drug-resistant HIV-1 isolates and different subtypes of HIV-1 isolates to drugs, phytohemagglutinin-activated peripheral blood mononuclear cells (PHA-PBMs; 10^6/mL) were exposed to 50 TCID50 (50% tissue infectious dose) of each HIV-1 isolate and cultured in the presence or absence of various concentrations of drugs in 10-fold serial dilutions in 96-well microtiter culture plates. To determine the drug susceptibility of certain laboratory HIV-1 strains (HIV-1NL4-3), MT-4 cells were used as target cells. MT-4 cells (10^5/mL) were exposed to 100 TCID50 of wild type HIV-1NL4-3 and PI-resistant HIV-1NL4-3 in the presence or absence of various concentrations of drugs and were incubated at 37° C. On day 7 of culture, the supernatant was harvested and the amount of p24 Gag protein was determined by using a fully automated chemiluminescent enzyme immunoassay system (Lumipulse F; Fujirebio Inc., Tokyo, Japan) (22). […] All assays were performed in duplicate or triplicate. […]

HIV-1MDR/TM (X4) = experiment: microbe, parasite or virus in culture; assay type: cell-based; conditions: for IC50: Human immunodeficiency virus 1, read-out: IC50 against HIV-1MDR/TM (X4); for fold change of IC50, HIV-1MDR/TM: compared to wild-type HIV-1ERS104pre
Experimental: as §1
(§2) HIV-1ERS104pre served as a source of wild-type HIV-1. The IC50 values were determined by using PHA-PBMs as target cells and the inhibition of p24 Gag protein production by each drug was used as an endpoint.

HIV-1MDR/G (X4) = experiment: microbe, parasite or virus in culture; assay type: cell-based; conditions: for IC50: Human immunodeficiency virus 1, read-out: IC50 against HIV-1MDR/G (X4); for fold change of IC50, HIV-1MDR/G: compared to wild-type HIV-1ERS104pre
Experimental: as §1, §2

HIV-1MDR/C (X4) = experiment: microbe, parasite or virus in culture; assay type: cell-based; conditions: for IC50: Human immunodeficiency virus 1, read-out: IC50 against HIV-1MDR/C (X4); for fold change of IC50, HIV-1MDR/C: compared to wild-type HIV-1ERS104pre
Experimental: as §1, §2

HIV-1MDR/MM (R5) = experiment: microbe, parasite or virus in culture; assay type: cell-based; conditions: for IC50: Human immunodeficiency virus 1, read-out: IC50 against HIV-1MDR/MM (R5); for fold change of IC50, HIV-1MDR/MM: compared to wild-type HIV-1ERS104pre
Experimental: as §1, §2

HIV-1MDR/JSL (R5) = experiment: microbe, parasite or virus in culture; assay type: cell-based; conditions: for IC50: Human immunodeficiency virus 1, read-out: IC50 against HIV-1MDR/JSL (R5); for fold change of IC50, HIV-1MDR/JSL: compared to wild-type HIV-1ERS104pre
Experimental: as §1, §2

HIV-1MDR/B (X4) = experiment: microbe, parasite or virus in culture; assay type: cell-based; conditions: for IC50: Human immunodeficiency virus 1, read-out: IC50 against HIV-1MDR/B (X4); for fold change of IC50, HIV-1MDR/B: compared to wild-type HIV-1ERS104pre
Experimental: as §1, §2

[1] = Cytotoxicity by MTT assay; assay type: cell-based, Human; conditions: human
Experimental: as §1

[2] = system: HIV-1 isolates of all subtypes (subtypes A, B, C, and E); experiment: p24 assay, PHA-PBMs, panel of HIV-1 isolates of subtypes A, B, C, and E; assay type: cell-based; conditions: Human immunodeficiency virus 1, read-out: IC50 against HIV-1 isolates of subtypes A, B, C, and E
Experimental: (§3) Drug susceptibility assay. The susceptibility of HIV-1LAI, HIV-2EHO, HIV-2ROD, to various drugs and the cytotoxicity of those drugs was determined by using the MTT assay. Briefly, MT-2 cells (2×10^4/mL) were exposed to 100 TCID50s (50% tissue culture infectious doses) of HIV-1LAI, HIV-2EHO, or HIV-2ROD in the presence or absence of various concentrations of drugs in 96-well microculture plates and were incubated at 37° C. for 7 days. After 100 μL of the medium was removed from each well, 3-(4,5-dimethylthiazol-2-yl)-2,5-diphenyltetrazolium bromide (MTT) solution (10 μL, 7.5 mg/mL in phosphate-buffered saline) was added to each well in the plate, followed by incubation at 37° C. for 4 hours. […] All assays were performed in duplicate or triplicate. […] On day 7 of culture, the supernatant was harvested and the amount of p24 Gag protein was determined by using a fully automated chemiluminescent enzyme immunoassay system (Lumipulse F; Fujirebio Inc., Tokyo, Japan) (22). […]
The IC50 values were determined by using PHA-PBMs as target cells and the inhibition of p24 Gag protein production by each drug was used as an endpoint. […]

[3] = system: HIV-2 strains (HIV-2EHO and HIV-2ROD); experiment: MTT assay, MT-2 cells, HIV-2 strains compared with HIV-1LAI; assay type: cell-based
Experimental: as §3

Compound	IC50 (92UG037 (A-R5)) [µM]	IC50 (HIV-1GRL98065r-40P) [µM]	fold change of IC50, HIV-1GRL98065r-40P (HIV-1GRL98065r-40P)	IC50 (HIV-1MDR/TM (X4)) [µM]	fold change of IC50, HIV-1MDR/TM (HIV-1MDR/TM (X4))	IC50 (HIV-1MDR/G (X4)) [µM]	fold change of IC50, HIV-1MDR/G (HIV-1MDR/G (X4))	IC50 (HIV-1MDR/C (X4)) [µM]	fold change of IC50, HIV-1MDR/C (HIV-1MDR/C (X4))	IC50 (HIV-1MDR/MM (R5)) [µM]	fold change of IC50, HIV-1MDR/MM (HIV-1MDR/MM (R5))	IC50 (HIV-1MDR/JSL (R5)) [µM]	fold change of IC50, HIV-1MDR/JSL (HIV-1MDR/JSL (R5))	IC50 (HIV-1MDR/B (X4)) [µM]	fold change of IC50, HIV-1MDR/B (HIV-1MDR/B (X4))	CC50 at 7 days [1] [µM]	IC50 [2] [µM]	factor by which potency against HIV-2 strains is less than against HIV-1LAI [3]
COC(=O)N[C@H](C(=O)N[C@@H](Cc1ccccc1)[C@@H](O)CN(Cc1ccc(-c2ccccn2)cc1)NC(=O)[C@@H](NC(=O)OC)C(C)(C)C)C(C)(C)C [ATV, Atazanavir]	0.0025 ± 0.0002	0.011	3	0.038 ± 0.009	10	0.032 ± 0.002	8	0.021 ± 0.006	6	0.045 ± 0.0001	12	0.54 ± 0.2	142	0.25 ± 0.003	66	–	–	–
CC(C)(C)NC(=O)[C@@H]1C[C@@H]2CCCC[C@@H]2CN1C[C@@H](O)[C@H](Cc1ccccc1)NC(=O)[C@H](CC(N)=O)NC(=O)c1ccc2ccccc2n1 [SQV, Saquinavir]	0.0032 ± 0.0003	0.032	5	0.18 ± 0.05	23	0.033 ± 0.005	4	0.035 ± 0.004	4	0.14 ± 0.04	18	0.29 ± 0.05	36	0.27 ± 0.06	34	–	–	–
CC(C)CN(C[C@@H](O)[C@H](Cc1ccccc1)NC(=O)O[C@H]1CCOC1)S(=O)(=O)c1ccc(N)cc1 [APV, Amprenavir]	–	> 1	–	0.3 ± 0.04	–	0.32 ± 0.02	–	0.25 ± 0.05	–	0.48 ± 0.09	–	0.43 ± 0.05	–	0.36 ± 0.09	–	–	–	–
CC(C)CN(CC(O)C(Cc1ccccc1)NC(=O)OC1COC2OCCC12)S(=O)(=O)c1ccc2c(c1)OCO2 (stereo not shown) [GRL-98065]	0.0004 ± 0.0001	0.18	600	0.0032 ± 0.0006	6	0.0034 ± 0.0003	7	0.0027 ± 0.0003	5	0.0038 ± 0.0006	8	0.006	12	0.0039 ± 0.0005	8	35.7	0.0002 to 0.0005	6-9
CC(C)(C)NC(=O)[C@@H]1CN(Cc2cccnc2)CCN1C[C@@H](O)C[C@@H](Cc1ccccc1)C(=O)N[C@H]1c2ccccc2C[C@H]1O [IDV, indinavir]	–	0.28	–	> 1	–	0.64 ± 0.11	–	> 1	–	> 1	–	> 1	–	> 1	–	–	–	–
CC(C)c1nc(CN(C)C(=O)N[C@H](C(=O)N[C@@H](Cc2ccccc2)C[C@H](O)[C@H](Cc2ccccc2)NC(=O)OCc2cncs2)C(C)C)cs1 [RTV, ritonavir]	0.041 ± 0.008	–	–	–	–	–	–	–	–	–	–	–	–	–	–	–	–	–
Cc1c(O)cccc1C(=O)N[C@@H](CSc1ccccc1)[C@H](O)CN1C[C@H]2CCCC[C@H]2C[C@H]1C(=O)NC(C)(C)C [NFV, Nelfinavir]	0.056 ± 0.014	–	–	–	–	–	–	–	–	–	–	–	–	–	–	–	–	–

Reference: patent US9808527B2, “Methods and compositions for treating HIV infections” (priority 2006, dated 2017)
